# Test results: US8785614B2, “Aberrantly methylated genes in pancreatic cancer” (The Johns Hopkins University, priority 2003, dated 2014)
# Read-outs that look alike come from different tables or passages of the source.
# Test system: four pancreatic cancer cell lines (AsPC1, Hs766T, MiaPaCa2, Panc1)
# Format: cell-based, human
# From the text: These include a large panel of novel targets for silencing by histone deacetylation including several known tumor suppressor genes or cell cycle-regulatory genes (ING1, p57KIP2, CHES1, CHFR, GADD45B, and others).
smiles,measurement,setting,value
"CC(/C=C/C(=O)NO)=C\[C@@H](C)C(=O)c1ccc(N(C)C)cc1 [TSA, trichostatin A]",changes in phenotypes during the treatment period,,did not result in apparent changes in their phenotypes
same,Induced by TSA alone?,ANGPT2,No
same,Induced by TSA alone?,BARD1,No
same,Induced by TSA alone?,BIK,Yes
same,Induced by TSA alone?,BNIP3,Yes
same,Induced by TSA alone?,BNIP3 (Table 3),Yes
same,Induced by TSA alone?,BST2,No
same,Induced by TSA alone?,BST2 (Table 3),No
same,Induced by TSA alone?,CACNA1G,Yes
same,Induced by TSA alone?,CASP5,No
same,Induced by TSA alone?,CCNA1,No
same,Induced by TSA alone?,CCNE2,No
same,Induced by TSA alone?,CDC25A,No
same,Induced by TSA alone?,CDH3,No
same,Induced by TSA alone?,CDKN1A (p21),No
same,Induced by TSA alone?,CDKN1C,Yes
same,Induced by TSA alone?,CDKN2A (p16),No
same,Induced by TSA alone?,CLDN5,No
same,Induced by TSA alone?,CLDN7,No
same,Induced by TSA alone?,CRIP 1,Yes
same,Induced by TSA alone?,CRLF1,Yes
same,Induced by TSA alone?,CSF1,Yes
same,Induced by TSA alone?,CSF3,No
same,Induced by TSA alone?,Cdc42 effector protein 2,No
same,Induced by TSA alone?,DAPK2,No
same,Induced by TSA alone?,DAZL,Yes
same,Induced by TSA alone?,DEAD box RNA helicase (VASA),No
same,Induced by TSA alone?,DR3,No
same,Induced by TSA alone?,FOXE1,No
same,Induced by TSA alone?,GAGE1,Yes
same,Induced by TSA alone?,GAGE2,Yes
same,Induced by TSA alone?,GAGE3,Yes
same,Induced by TSA alone?,GAGE4,Yes
same,Induced by TSA alone?,GAGE6,Yes
same,Induced by TSA alone?,GAGE7,Yes
same,Induced by TSA alone?,GAGE7B,Yes
same,Induced by TSA alone?,GAS1,No
same,Induced by TSA alone?,HOXA1,No
same,Induced by TSA alone?,HSPA1A,Yes
same,Induced by TSA alone?,IGF2,No
same,Induced by TSA alone?,IL1R1,No
same,Induced by TSA alone?,ISG20,No
same,Induced by TSA alone?,ITM3,Yes
same,Induced by TSA alone?,JPH3,No
same,Induced by TSA alone?,KLK10,No
same,Induced by TSA alone?,KRT17,No
same,Induced by TSA alone?,LDOC1,No
same,Induced by TSA alone?,LHX1,No
same,Induced by TSA alone?,LHX2,No
same,Induced by TSA alone?,LIPC,No
same,Induced by TSA alone?,MAGE1,Yes
same,Induced by TSA alone?,MAGEC1,Yes
same,Induced by TSA alone?,MATN1,Yes
same,Induced by TSA alone?,MLH1,Yes
same,Induced by TSA alone?,NEFH,Yes
same,Induced by TSA alone?,NK4,Yes
same,Induced by TSA alone?,NPTX2,Yes
same,Induced by TSA alone?,PAX6,No
same,Induced by TSA alone?,PAX6 (Table 3),No
same,Induced by TSA alone?,PDYN,No
same,Induced by TSA alone?,PIG11 (Table 3),No
same,Induced by TSA alone?,PLAT,No
same,Induced by TSA alone?,PLEK2,No
same,Induced by TSA alone?,PRG1,Yes
same,Induced by TSA alone?,S100A2,No
same,Induced by TSA alone?,S100P,No
same,Induced by TSA alone?,SALL1,No
same,Induced by TSA alone?,SARP2,No
same,Induced by TSA alone?,SARP2 (Table 3),No
same,Induced by TSA alone?,SGCE,Yes
same,Induced by TSA alone?,SMARCA1,No
same,Induced by TSA alone?,SPANXC,Yes
same,Induced by TSA alone?,ST14,Yes
same,Induced by TSA alone?,STAT3,Yes
same,Induced by TSA alone?,TERT,No
same,Induced by TSA alone?,TIMP3,No
same,Induced by TSA alone?,TJP2,No
same,Induced by TSA alone?,TNF,No
same,number of the 11 genes with aberrantly methylated CpG islands whose expression was induced,TSA alone,4 genes
same,Induced by TSA alone?,UCHL1,Yes
same,Induced by TSA alone?,UCHL1 (Table 3),Yes
same,Induced by TSA alone?,WISP2,No
same,Induced by TSA alone?,WIT-1,No
same,Induced by TSA alone?,WNT7A,Yes
same,Induced by TSA alone?,XAGE-1,Yes
same,Induced by TSA alone?,XAGE-1 (Table 3),Yes
same,Induced by TSA alone?,activity-regulated cytoskeleton-associated protein (APC),Yes
same,Induced by TSA alone?,aik3,Yes
same,Induced by TSA alone?,basic fibroblast growth factor (FGF),Yes
same,Induced by TSA alone?,"cytovillin 2 (VIL2, ezrin)",No
same,Induced by TSA alone?,granulocytemacrophage colony-stimulating factor (M11734),Yes
same,Induced by TSA alone?,"interferon, alpha-inducible protein (NM_022873)",Yes
same,Induced by TSA alone?,junction adhesion molecule (AF154005),Yes
same,Induced by TSA alone?,matrix metalloproteinase 8 (MMP3),No
same,Induced by TSA alone?,nucleotide-binding site protein 1 (AF298547),Yes
same,Induced by TSA alone?,p53-induced protein (PIGII),No
same,Induced by TSA alone?,reprimo,No
same,Induced by TSA alone?,stratifin (14-3-3 sigma),Yes
same,Induced by TSA alone?,stromal antigen 3 (STAG5),Yes
same,Induced by TSA alone?,"synovial sarcoma, X breakpoint 2 (AF257500)",Yes
same,Induced by TSA alone?,testin,Yes
same,Induced by TSA alone?,transketolase-like protein (X91817),Yes
